US10966426B2, “Herbicidal compositions comprising phenylpyrimidines” (BASF SE, priority 2016, dated 2021)

Key:
Format in all cases: in vivo
Setaria viridis = assay: greenhouse pre-emergence treatment, SETVI; settings: SETVI
Summary of the method: (§1)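 Damage rated on 0 to 100 scale (0 = normal growth, 100 = no emergence or total above-ground kill) after 2-4 weeks at species-dependent 10-25° C or 20-35° C. Seeds sown per species in loamy sand, ~3.0% humus, treated right after sowing with aqueous spray of single actives or 10% emulsion-concentrate mixtures, then hooded; additive expectation by Colby.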

Alopecurus myosuroides = assay: greenhouse pre-emergence treatment, ALOMY
Summary of the method: as §1

Galium aparine = assay: greenhouse post-emergence treatment, GALAP; settings: GALAP
Summary of the method: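 Scale 0–100 damage rating (100 = complete destruction of above-ground parts, 0 = normal growth), read 2 to 4 weeks after post-emergence application of aqueous spray liquor to plants 3–15 cm tall.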

Brachiaria decumbens = assay: greenhouse pre-emergence treatment, BRADC; settings: BRADC
Summary of the method: as §1

Echinocloa crus-galli = assay: greenhouse pre-emergence treatment, ECHCG; settings: 20 DAT
Summary of the method: as §1

Ambrosia elatior = assay: greenhouse post-emergence treatment, AMBEL; settings: 20 DAT, AMBEL
Summary of the method: (§2)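 Post-emergence greenhouse spray on 3–15 cm plants, sown direct or transplanted a few days before treatment. Scored visually on a 0–100 scale after 2 to 4 weeks; expected additive effect computed by Colby: E=X+Y−(X·Y/100).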

Polygonum convolvulus = assay: greenhouse pre-emergence treatment, POLCO; settings: POLCO; for % activity, solo application: Table X1
Summary of the method: as §1

Poa annua = assay: greenhouse post-emergence treatment, POAAN; settings: POAAN
Summary of the method: as §2

Helianthus annuus = assay: greenhouse pre-emergence treatment, HELAN; settings: HELAN
Summary of the method: as §1

Polygonum aviculare = assay: greenhouse post-emergence treatment, POLAV; settings: POLAV; for % activity, solo application: Table X4
Procedure: The culture containers used were plastic pots containing loamy sand with approximately 3.0% of humus as substrate. The seeds of the test plants were sown separately for each species.
For the post-emergence treatment, the test plants were grown to a plant height of from 3 to 15 cm, depending on the plant habit, and only then treated with the active compounds which had been suspended or emulsified in water. To this end, the test plants were either sown directly, and grown in the same containers, or they were first grown separately as seedlings and transplanted into the test containers a few days prior to treatment.
Depending on the species, the plants were kept at 10-25° C. and 20-35° C., respectively.
The test period extended over 2 to 4 weeks. During this time, the plants were tended and their response to the individual treatments was evaluated.
Evaluation was carried out using a scale from 0 to 100. 100 means no emergence of the plants, or complete destruction of at least the above-ground parts, and 0 means no damage or normal course of growth. A good herbicidal activity is given at values of at least 70, and very good herbicidal activity is given at values of at least 85.
The respective stated components A and B, and if appropriate, C were formulated as a 10% by weight strength emulsion concentrate and, with addition of the amount of solvent system, introduced into the spray liquor used for applying the active compound. In the examples, the solvent used was water.
In the examples below, using the method of S. R. Colby (1967) “Calculating synergistic and antagonistic responses of herbicide combinations”, Weeds 15, p. 22ff., the value E, which is expected if the activity of the individual active compounds is only additive, was calculated. E=X+Y−(X·Y/100) where X=effect in percent using herbicide A at an application rate a; • Y=effect in percent using herbicide B at application rate b; • E=expected effect (in %) of herbicide A+herbicide B at application rates a+b.

Digitaria sanguinalis = assay: greenhouse post-emergence treatment, DIGSA; settings: DIGSA
Summary of the method: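 Greenhouse test in humus-containing (~3.0%) loamy sand at species-dependent temperatures of 10-25° C. or 20-35° C.; treatments applied in water. Damage rated visually after 2–4 weeks (0 = none, 100 = complete destruction or no emergence).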

[1] = solo Ex. 5 31.25 gai/ha, 20 DAT
[2] = Table X13, 20 DAT, solo Ex. 5 31.25 gai/ha
[3] = Table X13, 20 DAT, solo Ex. 5 62.5 gai/ha
[4] = Ex. 5 solo, 62.5 gai/ha, 20 DAT
[5] = Table X8, 20 DAT, solo Ex. 5 250 gai/ha
[6] = 20 DAT, solo Ex. 5 31.25 gai/ha
[7] = Ex. 5 solo, 62.5 gai/ha, 21 DAT

SMILES: O=C(O)c1nc(C2CC2)ncc1-c1ccccc1Cl [Ex. 5]
- % activity, solo application (Setaria viridis; 31.25 gai/ha, 20 DAT, Table X6): 0%
- % activity, solo application (Setaria viridis; 125 gai/ha, 20 DAT, Table X1): 45%
- % activity, solo application (Setaria viridis; 125 gai/ha, 20 DAT, Table X2): 60%
- % activity, solo application (Setaria viridis; 125 gai/ha, 20 DAT, Table X6): 60%
- % activity, solo application (Setaria viridis; 250 gai/ha, 20 DAT, Table X1): 65%
- % activity (Setaria viridis; Ex. 5 solo, 125 gai/ha, 20 DAT): 50%
- % activity (Setaria viridis; 20 DAT, solo Ex. 5 62.5 gai/ha): 30%
- % activity (Setaria viridis; 20 DAT, solo Ex. 5 125 gai/ha): 50%
- % activity (Setaria viridis; [1]): 35%
- % activity (Setaria viridis; solo Ex. 5 125 gai/ha, 20 DAT): 45%
- % activity (Setaria viridis; Table X9, 21 DAT, solo Ex. 5 125 gai/ha): 50%
- % activity (Setaria viridis; [2]): 20%
- % activity (Setaria viridis; [3]): 35%
- % activity (Setaria viridis; solo, 31.25 gai/ha, 20 DAT): 10%
- % activity (Setaria viridis; solo, 62.5 gai/ha, 21 DAT): 45%
- % activity (Setaria viridis; solo, 125 gai/ha, 20 DAT): 45%
- % activity (Setaria viridis; solo, 125 gai/ha, 21 DAT): 60%
- % activity (Setaria viridis; solo, 250 gai/ha, 21 DAT): 65%
- % activity (Alopecurus myosuroides; [2]): 90%
- % activity (Alopecurus myosuroides; [1]): 90%
- % activity (Alopecurus myosuroides; solo Ex. 5 62.5 gai/ha, 20 DAT): 90%
- % activity, solo application (Galium aparine; 125 gai/ha, 20 DAT, Table X4): 0%
- % activity, solo application (Galium aparine; 125 gai/ha, 20 DAT, Table X5): 0%
- % activity, solo application (Galium aparine; 250 gai/ha, 20 DAT, Table X4): 30%
- % activity, solo application (Galium aparine; 250 gai/ha, 20 DAT, Table X5): 0%
- % activity (Galium aparine; Ex. 5 solo, 31.25 gai/ha, 21 DAT): 10%
- % activity (Galium aparine; [4]): 0%
- % activity (Galium aparine; Ex. 5 solo, 250 gai/ha, 21 DAT): 25%
- % activity (Galium aparine; solo Ex. 5 62.5 gai/ha, 20 DAT): 0%
- % activity (Galium aparine; solo Ex. 5 125 gai/ha, 20 DAT): 0%
- % activity (Galium aparine; solo Ex. 5 125 gai/ha, 21 DAT): 0%
- % activity (Galium aparine; [5]): 20%
- % activity (Galium aparine; Table X12, 20 DAT, solo Ex. 5 62.5 gai/ha): 0%
- % activity (Galium aparine; Table X12, 20 DAT, solo Ex. 5 125 gai/ha): 0%
- % activity (Galium aparine; solo, 62.5 gai/ha, 20 DAT): 0%
- % activity (Galium aparine; solo, 125 gai/ha, 20 DAT): 0%
- % activity (Galium aparine; solo, 250 gai/ha, 20 DAT): 30%
- % activity, solo application (Brachiaria decumbens; 62.5 gai/ha, 20 DAT, Table X2): 80%
- % activity, solo application (Brachiaria decumbens; 125 gai/ha, 20 DAT, Table X6): 95%
- % activity (Brachiaria decumbens; [6]): 20%
- % activity (Brachiaria decumbens; 20 DAT, solo Ex. 5 62.5 gai/ha): 60%
- % activity (Brachiaria decumbens; 20 DAT, solo Ex. 5 125 gai/ha): 70%
- % activity (Brachiaria decumbens; [4]): 60%
- % activity (Brachiaria decumbens; Ex. 5 solo, 125 gai/ha, 20 DAT): 70%
- % activity (Brachiaria decumbens; [2]): 85%
- % activity (Brachiaria decumbens; solo, 31.25 gai/ha, 20 DAT): 55%
- % activity (Brachiaria decumbens; solo, 62.5 gai/ha, 20 DAT): 85%
- % activity (Echinocloa crus-galli; Ex. 5 solo, 62.5 gai/ha): 85%
- % activity (Echinocloa crus-galli; solo, 31.25 gai/ha): 95%
- % activity (Echinocloa crus-galli; solo, 125 gai/ha): 95%
- % activity, solo application (Ambrosia elatior; 125 gai/ha, Table X5): 80%
- % activity (Ambrosia elatior; solo Ex. 5 62.5 gai/ha): 80%
- % activity (Ambrosia elatior; solo Ex. 5 125 gai/ha): 80%
- % activity (Ambrosia elatior; solo, 62.5 gai/ha): 85%
- % activity, solo application (Polygonum convolvulus; 62.5 gai/ha, 20 DAT): 60%
- % activity, solo application (Polygonum convolvulus; 125 gai/ha, 20 DAT): 80%
- % activity (Polygonum convolvulus; [4]): 65%
- % activity (Polygonum convolvulus; Table X10, 20 DAT, solo Ex. 5 31.25 gai/ha): 60%
- % activity (Polygonum convolvulus; Table X10, 20 DAT, solo Ex. 5 125 gai/ha): 80%
- % activity (Polygonum convolvulus; [2]): 60%
- % activity (Polygonum convolvulus; [3]): 75%
- % activity (Polygonum convolvulus; Table X13, 20 DAT, solo Ex. 5 250 gai/ha): 90%
- % activity (Polygonum convolvulus; Table X14, 20 DAT, solo Ex. 5 31.25 gai/ha): 60%
- % activity (Polygonum convolvulus; solo, 31.25 gai/ha, 20 DAT): 35%
- % activity (Polygonum convolvulus; solo, 62.5 gai/ha, 21 DAT): 70%
- % activity (Polygonum convolvulus; solo, 125 gai/ha, 21 DAT): 85%
- % activity (Poa annua; solo Ex. 5 62.5 gai/ha, 20 DAT): 80%
- % activity (Poa annua; solo Ex. 5 125 gai/ha, 20 DAT): 80%
- % activity (Poa annua; solo Ex. 5 125 gai/ha, 21 DAT): 85%
- % activity (Poa annua; solo Ex. 5 250 gai/ha, 21 DAT): 85%
- % activity (Poa annua; Table X8, 20 DAT, solo Ex. 5 125 gai/ha): 90%
- % activity (Poa annua; [5]): 90%
- % activity (Poa annua; solo, 62.5 gai/ha, 20 DAT): 85%
- % activity (Poa annua; solo, 125 gai/ha, 20 DAT): 85%
- % activity (Poa annua; solo, 250 gai/ha, 20 DAT): 85%
- % activity, solo application (Helianthus annuus; 31.25 gai/ha, 20 DAT, Table X6): 0%
- % activity, solo application (Helianthus annuus; 62.5 gai/ha, 20 DAT, Table X1): 35%
- % activity, solo application (Helianthus annuus; 125 gai/ha, 20 DAT, Table X2): 40%
- % activity, solo application (Helianthus annuus; 125 gai/ha, 20 DAT, Table X6): 40%
- % activity (Helianthus annuus; Ex. 5 solo, 125 gai/ha, 20 DAT): 60%
- % activity (Helianthus annuus; [6]): 0%
- % activity (Helianthus annuus; 20 DAT, solo Ex. 5 62.5 gai/ha): 0%
- % activity (Helianthus annuus; solo, 31.25 gai/ha, 20 DAT): 0%
- % activity (Helianthus annuus; solo, 62.5 gai/ha, 20 DAT): 0%
- % activity (Helianthus annuus; solo, 125 gai/ha, 20 DAT): 0%
- % activity (Helianthus annuus; solo, 125 gai/ha, 21 DAT): 50%
- % activity (Helianthus annuus; solo, 250 gai/ha, 21 DAT): 80%
- % activity, solo application (Polygonum aviculare; 125 gai/ha, 20 DAT): 95%
- % activity, solo application (Polygonum aviculare; 250 gai/ha, 20 DAT): 95%
- % activity (Polygonum aviculare; [7]): 90%
- % activity (Polygonum aviculare; 20 DAT, solo Ex. 5 62.5 gai/ha): 90%
- % activity (Polygonum aviculare; 20 DAT, solo Ex. 5 125 gai/ha): 90%
- % activity (Polygonum aviculare; 20 DAT, solo Ex. 5 125 gai/ha (Table X66)): 90%
- % activity, solo application (Digitaria sanguinalis; 62.5 gai/ha, 20 DAT, Table X3): 30%
- % activity, solo application (Digitaria sanguinalis; 125 gai/ha, 20 DAT, Table X4): 50%
- % activity, solo application (Digitaria sanguinalis; 125 gai/ha, 20 DAT, Table X5): 65%
- % activity, solo application (Digitaria sanguinalis; 250 gai/ha, 20 DAT, Table X4): 70%
- % activity, solo application (Digitaria sanguinalis; 250 gai/ha, 20 DAT, Table X5): 70%
- % activity (Digitaria sanguinalis; 21 DAT, solo Ex. 5 125 gai/ha): 60%
- % activity (Digitaria sanguinalis; 21 DAT, solo Ex. 5 250 gai/ha): 80%
- % activity (Digitaria sanguinalis; solo Ex. 5 62.5 gai/ha, 20 DAT): 35%
- % activity (Digitaria sanguinalis; solo Ex. 5 125 gai/ha, 21 DAT): 45%
- % activity (Digitaria sanguinalis; solo Ex. 5 250 gai/ha, 21 DAT): 65%
- % activity (Digitaria sanguinalis; solo Ex. 5 500 gai/ha, 20 DAT, 2nd series of rows): 75%
- % activity (Digitaria sanguinalis; [7]): 35%
- % activity (Digitaria sanguinalis; [5]): 65%
- % activity (Digitaria sanguinalis; solo, 62.5 gai/ha, 20 DAT): 35%
- % activity (Digitaria sanguinalis; solo, 125 gai/ha, 20 DAT): 50%
